Strand notation (5' to 3'): a small letter for the sugar, then the base; units joined by * are phosphorothioate-linked, units joined directly phosphodiester-linked; [ ] holds rarer units or linkages, { } end groups; capitals alone tell only the bases. e = 2'-O-(2-methoxyethyl) (MOE); [5mC] = 5-methylcytosine; d = 2'-deoxy (DNA)
System: human PKK mRNA
Assay: Antisense inhibition of human PKK mRNA in HepaRG cells, 5,000 nM (Example 2)
Type: cell-based
Details: human PKK mRNA in HepaRG cells; 5-10-5 gapmers; Table 14
Method in brief: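 Percent inhibition of PKK mRNA is relative to untreated control, with qRT-PCR (probe set RTS3454) values adjusted to total RNA by RIBOGREEN. Oligonucleotides, fully phosphorothioate 2′-MOE gapmers, were delivered at 5,000 nM by electroporation into 20,000 HepaRG cells/well for about 24 h.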

Substance | % inhibition
547592 (eT*e[5mC]*e[5mC]*eT*eA*dT*dA*dA*d[5mC]*dT*dA*dT*dA*dA*d[5mC]*eA*eG*eT*eA*eT; antisense) [compound 547592] | 27%
547593 (eT*eT*e[5mC]*e[5mC]*eT*dA*dT*dA*dA*d[5mC]*dT*dA*dT*dA*dA*e[5mC]*eA*eG*eT*eA; antisense) [compound 547593] | 29%
547594 (eG*eT*eT*eT*e[5mC]*d[5mC]*dT*dA*dT*dA*dA*d[5mC]*dT*dA*dT*eA*eA*e[5mC]*eA*eG; antisense) [compound 547594] | 19%
547595 (antisense eA*e[5mC]*eT*eA*eG*dT*dT*dT*d[5mC]*d[5mC]*dT*dA*dT*dA*dA*e[5mC]*eT*eA*eT*eA) [compound 547595] | 21%
547596 (antisense eT*eA*e[5mC]*eT*eA*dG*dT*dT*dT*d[5mC]*d[5mC]*dT*dA*dT*dA*eA*e[5mC]*eT*eA*eT) [compound 547596] | 14%
547597 (antisense e[5mC]*eA*eA*eT*eA*dT*d[5mC]*dA*d[5mC]*dT*dG*dT*d[5mC]*d[5mC]*dT*eA*eT*eA*eT*e[5mC]) [compound 547597] | 29%
547598 (antisense eA*e[5mC]*eT*eA*eT*dA*dA*d[5mC]*dA*dA*dT*dA*dT*d[5mC]*dA*e[5mC]*eT*eG*eT*e[5mC]) [compound 547598] | 59%
547599 (antisense eT*eT*e[5mC]*e[5mC]*eT*dA*dT*dA*dA*d[5mC]*dT*dA*dT*dA*dA*e[5mC]*eA*eA*eT*eA) [compound 547599] | 4%
547600 (antisense eT*eT*eT*e[5mC]*e[5mC]*dT*dA*dT*dA*dA*d[5mC]*dT*dA*dT*dA*eA*e[5mC]*eA*eA*eT) [compound 547600] | 26%
547601 (antisense eG*eT*eA*e[5mC]*e[5mC]*dT*dA*dT*dA*dA*d[5mC]*dT*d[5mC]*dT*dA*eA*e[5mC]*eA*eG*eT) [compound 547601] | 75%
547603 (antisense eT*eA*eT*e[5mC]*eA*d[5mC]*dT*dG*dT*dA*d[5mC]*d[5mC]*dT*dA*dT*eA*eA*e[5mC]*eT*e[5mC]) [compound 547603] | 41%
547604 (antisense eA*eT*eA*eT*e[5mC]*dA*d[5mC]*dT*dG*dT*dA*d[5mC]*d[5mC]*dT*dA*eT*eA*eA*e[5mC]*eT) [compound 547604] | 0%
547605 (antisense eA*e[5mC]*eA*eA*eT*dA*dT*d[5mC]*dA*d[5mC]*dT*dG*dT*dA*d[5mC]*e[5mC]*eT*eA*eT*eA) [compound 547605] | 43%
547606 (antisense eA*eA*e[5mC]*eA*eA*dT*dA*dT*d[5mC]*dA*d[5mC]*dT*dG*dT*dA*e[5mC]*e[5mC]*eT*eA*eT) [compound 547606] | 43%
547607 (antisense eT*eA*eA*e[5mC]*eA*dA*dT*dA*dT*d[5mC]*dA*d[5mC]*dT*dG*dT*eA*e[5mC]*e[5mC]*eT*eA) [compound 547607] | 49%
547608 (antisense eT*eA*eT*eA*eA*d[5mC]*dA*dA*dT*dA*dT*d[5mC]*dA*d[5mC]*dT*eG*eT*eA*e[5mC]*e[5mC]) [compound 547608] | 35%
547609 (antisense e[5mC]*eT*eA*eT*eA*dA*d[5mC]*dA*dA*dT*dA*dT*d[5mC]*dA*d[5mC]*eT*eG*eT*eA*e[5mC]) [compound 547609] | 23%
547610 (antisense eT*eG*eT*eA*eA*d[5mC]*dA*dG*dT*dA*dT*d[5mC]*dA*d[5mC]*dT*eG*eT*eA*e[5mC]*eT) [compound 547610] | 45%
547611 (antisense e[5mC]*eT*eG*eT*eA*dA*d[5mC]*dA*dG*dT*dA*dT*d[5mC]*dA*d[5mC]*eT*eG*eT*eA*e[5mC]) [compound 547611] | 71%
547612 (antisense e[5mC]*e[5mC]*eT*eG*eT*dA*dA*d[5mC]*dA*dG*dT*dA*dT*d[5mC]*dA*e[5mC]*eT*eG*eT*eA) [compound 547612] | 68%
547613 (antisense e[5mC]*eT*eA*eT*eA*dT*d[5mC]*dA*d[5mC]*dT*dG*dT*dA*d[5mC]*d[5mC]*eT*eG*eT*eA*eA) [compound 547613] | 39%
547614 (antisense e[5mC]*e[5mC]*eT*eA*eT*dA*dT*d[5mC]*dA*d[5mC]*dT*dG*dT*dA*d[5mC]*e[5mC]*eT*eG*eT*eA) [compound 547614] | 81%
547619 (antisense eT*e[5mC]*e[5mC]*eT*eA*dT*dA*dA*d[5mC]*dA*dG*dT*dA*dT*d[5mC]*eA*e[5mC]*eT*eG*eT) [compound 547619] | 70%
547620 (antisense eT*eT*e[5mC]*e[5mC]*eT*dA*dT*dA*dA*d[5mC]*dA*dG*dT*dA*dT*e[5mC]*eA*e[5mC]*eT*eG) [compound 547620] | 65%
547621 (antisense eT*eA*e[5mC]*eT*eA*dG*dT*dT*dT*d[5mC]*d[5mC]*dT*dA*dT*dA*eA*e[5mC]*eA*eG*eT) [compound 547621] | 12%
547623 (antisense eT*eG*eT*e[5mC]*eA*d[5mC]*dT*dG*dT*dA*d[5mC]*d[5mC]*dT*dA*dT*eA*eA*e[5mC]*eT*e[5mC]) [compound 547623] | 81%
547624 (antisense eA*eT*eG*eT*e[5mC]*dA*d[5mC]*dT*dG*dT*dA*d[5mC]*d[5mC]*dT*dA*eT*eA*eA*e[5mC]*eT) [compound 547624] | 64%

Same assay, conditions: human PKK mRNA, HepaRG cells; 5-10-5 motif oligonucleotides targeting SEQ ID NO: 1 and 10

Substance | % inhibition
547625 (antisense e[5mC]*eA*eG*eT*eA*dT*d[5mC]*dA*d[5mC]*dT*dG*dT*d[5mC]*d[5mC]*dT*eA*eT*eG*eT*e[5mC]) [compound 547625] | 79%
547626 (antisense eA*e[5mC]*eA*eG*eT*dA*dT*d[5mC]*dA*d[5mC]*dT*dG*dT*d[5mC]*d[5mC]*eT*eA*eT*eG*eT) [compound 547626] | 91%
547627 (antisense eT*e[5mC]*eT*eA*e[5mC]*d[5mC]*dT*dA*dT*dA*dA*d[5mC]*dT*d[5mC]*dT*eA*eA*e[5mC]*eA*eG) [compound 547627] | 71%
547628 (antisense e[5mC]*eT*e[5mC]*eT*eA*d[5mC]*d[5mC]*dT*dA*dT*dA*dA*d[5mC]*dT*d[5mC]*eT*eA*eA*e[5mC]*eA) [compound 547628] | 34%
547629 (antisense eA*e[5mC]*eT*e[5mC]*eT*dA*d[5mC]*d[5mC]*dT*dA*dT*dA*dA*d[5mC]*dT*e[5mC]*eT*eA*eA*e[5mC]) [compound 547629] | 0%
547630 (antisense eA*e[5mC]*eT*eG*eT*d[5mC]*d[5mC]*dT*dA*dT*dA*dT*d[5mC]*dA*d[5mC]*eT*e[5mC]*eT*eA*e[5mC]) [compound 547630] | 76%
547631 (antisense e[5mC]*eA*e[5mC]*eT*eG*dT*d[5mC]*d[5mC]*dT*dA*dT*dA*dT*d[5mC]*dA*e[5mC]*eT*e[5mC]*eT*eA) [compound 547631] | 85%
547634 (antisense eA*eT*e[5mC]*eA*e[5mC]*dT*dG*dT*dA*d[5mC]*dT*dA*dG*dT*dT*eT*eT*e[5mC]*eT*eA) [compound 547634] | 72%
547635 (eT*eA*eT*e[5mC]*eA*d[5mC]*dT*dG*dT*dA*d[5mC]*dT*dA*dG*dT*eT*eT*eT*e[5mC]*eT; antisense) [compound 547635] | 53%
